Experimental findings from the NIST ThermoML archive (doi:10.1016/j.fluid.2014.11.020) are described below.

The nature of the data set: activity coefficient (dimensionless); of the first substance listed, at infinite dilution; xn = mol fraction of the nth substance listed. Conditions: Liquid, Chromatography, x1 = 0.

Structures are written as SMILES. ± gives the expanded uncertainty stated by the source.

In the case of `CC(C)OC(C)C` [diisopropyl ether] + CCCCCCCCn1cc[n+](COCCCOC[n+]2ccn(CCCCCCCC)c2C)c1C.N#C[N-]C#N.N#C[N-]C#N, the activity coefficient is 4.38 ± 0.3 (323.15 K), 4.07 ± 0.28 (333.15 K) and 3.93 ± 0.27 (343.15 K).

As for `Cc1ccc(C)cc1` [1,4-dimethylbenzene] + CCCOC[n+]1ccn(Cc2ccccc2)c1.O=S(=O)([N-]S(=O)(=O)C(F)(F)F)C(F)(F)F, the activity coefficient is, setting by setting: (323.15 K) 1.56 ± 0.1; (333.15 K) 1.37 ± 0.09; (343.15 K) 1.34 ± 0.09.

Regarding `C[N+](=O)[O-]` [nitromethane] + CCCOC[n+]1ccn(Cc2ccccc2)c1.O=S(=O)([N-]S(=O)(=O)C(F)(F)F)C(F)(F)F, the activity coefficient came to 0.46 ± 0.04 (323.15 K), 0.4 ± 0.03 (333.15 K) and 0.4 ± 0.03 (343.15 K).

In the case of `c1ccsc1` [thiophene] + CCCCCCCCn1cc[n+](COCCCOC[n+]2ccn(CCCCCCCC)c2C)c1C.N#C[N-]C#N.N#C[N-]C#N, the activity coefficient by setting is: (323.15 K) 0.49 ± 0.04; (333.15 K) 0.49 ± 0.04; (343.15 K) 0.51 ± 0.04.

For the molecule `CCCO` [propan-1-ol] + Cn1cc[n+](COCCCOC[n+]2ccn(C)c2)c1.O=S(=O)([N-]S(=O)(=O)C(F)(F)F)C(F)(F)F.O=S(=O)([N-]S(=O)(=O)C(F)(F)F)C(F)(F)F, the activity coefficient was 1.43 ± 0.09 (323.15 K), 1.32 ± 0.09 (333.15 K) and 1.19 ± 0.08 (343.15 K).

For `CCCCCCC` [heptane] + Cn1cc[n+](COCCCOC[n+]2ccn(C)c2)c1.O=S(=O)([N-]S(=O)(=O)C(F)(F)F)C(F)(F)F.O=S(=O)([N-]S(=O)(=O)C(F)(F)F)C(F)(F)F, the activity coefficient worked out at 53 ± 3.6 (323.15 K) and 34 ± 2.3 (333.15 K).

As for `CC1CCCCC1` [methylcyclohexane] + CCCOC[n+]1ccn(Cc2ccccc2)c1.N#C[N-]C#N, the activity coefficient by setting is: (323.15 K) 21.3 ± 1.5; (333.15 K) 20.4 ± 1.4; (343.15 K) 18.2 ± 1.2.

On to `CCCCCCCCCCC` [undecane] + CCCOC[n+]1ccc(N(C)C)cc1.O=S(=O)([N-]S(=O)(=O)C(F)(F)F)C(F)(F)F, for which the activity coefficient reads like this: (323.15 K) 55.7 ± 3.8; (333.15 K) 52.9 ± 3.6; (343.15 K) 46.6 ± 3.2.

Turning to `CCCCCC` [hexane] + CCCOC[n+]1ccn(Cc2ccccc2)c1.O=S(=O)([N-]S(=O)(=O)C(F)(F)F)C(F)(F)F, the activity coefficient by setting is: (323.15 K) 7.52 ± 0.51; (333.15 K) 7.21 ± 0.49; (343.15 K) 6.92 ± 0.47.

As to `Cc1cccc(C)c1` [1,3-dimethylbenzene] + CCCCCCCCn1cc[n+](COCCCOC[n+]2ccn(CCCCCCCC)c2C)c1C.O=S(=O)([N-]S(=O)(=O)C(F)(F)F)C(F)(F)F.O=S(=O)([N-]S(=O)(=O)C(F)(F)F)C(F)(F)F, the activity coefficient (323.15 K) stood at 0.75 ± 0.05, the activity coefficient (333.15 K) was found to be 0.72 ± 0.05 and the activity coefficient (343.15 K) was determined as 0.74 ± 0.05.

Take `CCCCCC` [hexane] + CCCCCCCCn1cc[n+](COCCC)c1C.O=S(=O)([N-]S(=O)(=O)C(F)(F)F)C(F)(F)F: the activity coefficient runs as follows: (323.15 K) 3.82 ± 0.26; (333.15 K) 3.74 ± 0.25; (343.15 K) 3.12 ± 0.21.

With `CCC(C)CC` [3-methylpentane] + Cn1cc[n+](COCCCOC[n+]2ccn(C)c2)c1.O=S(=O)([N-]S(=O)(=O)C(F)(F)F)C(F)(F)F.O=S(=O)([N-]S(=O)(=O)C(F)(F)F)C(F)(F)F, the activity coefficient runs as follows: (323.15 K) 39.2 ± 2.7; (333.15 K) 14.4 ± 1.

For the molecule `CC(C)O` [propan-2-ol] + N#C[N-]C#N.N#C[N-]C#N.c1ccc(Cn2cc[n+](COCCCOC[n+]3ccn(Cc4ccccc4)c3)c2)cc1, the activity coefficient reads like this: (323.15 K) 1.57 ± 0.1; (333.15 K) 1.45 ± 0.1; (343.15 K) 1.39 ± 0.09.

With `C1COCCO1` [1,4-dioxane] + N#C[N-]C#N.N#C[N-]C#N.c1ccc(Cn2cc[n+](COCCCOC[n+]3ccn(Cc4ccccc4)c3)c2)cc1, the activity coefficient is, setting by setting: (323.15 K) 1.32 ± 0.09; (333.15 K) 1.32 ± 0.09; (343.15 K) 1.35 ± 0.09.

Regarding `CCCCCCCCC` [nonane] + CCCOC[n+]1ccn(Cc2ccccc2)c1.F[B-](F)(F)F, the activity coefficient by setting is: (323.15 K) 179 ± 12; (333.15 K) 164 ± 11; (343.15 K) 126 ± 8.7.

For the molecule `CCCCCC` [hexane] + CCCOC[n+]1ccn(Cc2ccccc2)c1.N#C[N-]C#N, the activity coefficient (323.15 K) came to 32.4 ± 2.2.

As for `CCCCCCCCCC` [decane] + CCCCCCCCn1cc[n+](COCCCOC[n+]2ccn(CCCCCCCC)c2C)c1C.N#C[N-]C#N.N#C[N-]C#N, the activity coefficient is, setting by setting: (323.15 K) 19.5 ± 1.3; (333.15 K) 19.5 ± 1.3; (343.15 K) 17.8 ± 1.2.

On to `CCOCC` [diethyl ether] + CCCCCCCCn1cc[n+](COCCCOC[n+]2ccn(CCCCCCCC)c2C)c1C.N#C[N-]C#N.N#C[N-]C#N, for which the activity coefficient by setting is: (323.15 K) 2.41 ± 0.16; (333.15 K) 2.33 ± 0.16; (343.15 K) 2.13 ± 0.14.

`Cc1ccccc1` [toluene] + CCCOC[n+]1ccn(C)c1.N#C[N-]C#N: the activity coefficient (323.15 K) came out at 3.6 ± 0.25, the activity coefficient (333.15 K) came to 3.65 ± 0.25 and the activity coefficient (343.15 K) was 3.77 ± 0.26.

On to `CC1CCCC1` [methylcyclopentane] + CCCCCCCCn1cc[n+](COCCCOC[n+]2ccn(CCCCCCCC)c2C)c1C.N#C[N-]C#N.N#C[N-]C#N, for which the activity coefficient by setting is: (323.15 K) 4.75 ± 0.32; (333.15 K) 4.7 ± 0.32; (343.15 K) 4.63 ± 0.32.

With `C1CCCCC1` [cyclohexane] + CCCCCCCCn1cc[n+](COCCCOC[n+]2ccn(CCCCCCCC)c2C)c1C.O=S(=O)([N-]S(=O)(=O)C(F)(F)F)C(F)(F)F.O=S(=O)([N-]S(=O)(=O)C(F)(F)F)C(F)(F)F, the activity coefficient turned out to be 2.41 ± 0.16 (323.15 K), 2.22 ± 0.15 (333.15 K) and 2.11 ± 0.14 (343.15 K).

In the case of `CCCCCCC` [heptane] + CCCOC[n+]1ccn(C)c1.O=S(=O)([N-]S(=O)(=O)C(F)(F)F)C(F)(F)F, the activity coefficient (323.15 K) stood at 22.9 ± 1.6, the activity coefficient (333.15 K) came to 20.4 ± 1.4 and the activity coefficient (343.15 K) was 17.1 ± 1.2.

As for `c1ccsc1` [thiophene] + CCCOC[n+]1ccn(Cc2ccccc2)c1.N#C[N-]C#N, the activity coefficient by setting is: (323.15 K) 0.98 ± 0.06; (333.15 K) 1.02 ± 0.06; (343.15 K) 1.04 ± 0.07.

As to `CCCO` [propan-1-ol] + CCCCCCCCn1cc[n+](COCCCOC[n+]2ccn(CCCCCCCC)c2C)c1C.N#C[N-]C#N.N#C[N-]C#N, the activity coefficient (323.15 K) worked out at 0.32 ± 0.03, the activity coefficient (333.15 K) amounted to 0.32 ± 0.03 and the activity coefficient (343.15 K) amounted to 0.31 ± 0.03.

With `CCCCCCCCCCC` [undecane] + CCCCCCCCn1cc[n+](COCCCOC[n+]2ccn(CCCCCCCC)c2C)c1C.O=S(=O)([N-]S(=O)(=O)C(F)(F)F)C(F)(F)F.O=S(=O)([N-]S(=O)(=O)C(F)(F)F)C(F)(F)F, the activity coefficient worked out at 12.4 ± 0.85 (323.15 K), 11.1 ± 0.76 (333.15 K) and 10.6 ± 0.72 (343.15 K).

With `CCC(C)=O` [butanone] + CCCOC[n+]1ccn(C)c1.O=S(=O)([N-]S(=O)(=O)C(F)(F)F)C(F)(F)F, the activity coefficient (323.15 K) was found to be 0.47 ± 0.04, the activity coefficient (333.15 K) stood at 0.43 ± 0.04 and the activity coefficient (343.15 K) amounted to 0.4 ± 0.03.

Consider `CCN(CC)CC` [triethylamine] + CCCOC[n+]1ccn(C)c1.N#C[N-]C#N, for which the activity coefficient runs as follows: (323.15 K) 10.3 ± 0.7; (333.15 K) 15.7 ± 1.1; (343.15 K) 24.8 ± 1.7.

For `CCC(=O)CC` [pentan-3-one] + CCCOC[n+]1ccn(C)c1.F[B-](F)(F)F, the activity coefficient is, setting by setting: (323.15 K) 3.34 ± 0.23; (333.15 K) 3.36 ± 0.23; (343.15 K) 3.41 ± 0.23.

As to `CCO` [ethanol] + CCCOC[n+]1ccc(N(C)C)cc1.O=S(=O)([N-]S(=O)(=O)C(F)(F)F)C(F)(F)F, the activity coefficient (323.15 K) amounted to 1.57 ± 0.1, the activity coefficient (333.15 K) was determined as 1.47 ± 0.1 and the activity coefficient (343.15 K) was found to be 1.4 ± 0.09.

As to `CCCCCCCCCC` [decane] + CCCCCCCCn1cc[n+](COCCCOC[n+]2ccn(CCCCCCCC)c2C)c1C.O=S(=O)([N-]S(=O)(=O)C(F)(F)F)C(F)(F)F.O=S(=O)([N-]S(=O)(=O)C(F)(F)F)C(F)(F)F, the activity coefficient is, setting by setting: (323.15 K) 9.63 ± 0.66; (333.15 K) 8.73 ± 0.6; (343.15 K) 8.35 ± 0.57.

Consider `Cc1ccc(C)cc1` [1,4-dimethylbenzene] + CN(C)c1cc[n+](COCCCOC[n+]2ccc(N(C)C)cc2)cc1.O=S(=O)([N-]S(=O)(=O)C(F)(F)F)C(F)(F)F.O=S(=O)([N-]S(=O)(=O)C(F)(F)F)C(F)(F)F, for which the activity coefficient by setting is: (323.15 K) 1.34 ± 0.09; (333.15 K) 1.36 ± 0.09; (343.15 K) 1.37 ± 0.09.

Take `CCC[N+](=O)[O-]` [1-nitropropane] + Cn1cc[n+](COCCCOC[n+]2ccn(C)c2)c1.O=S(=O)([N-]S(=O)(=O)C(F)(F)F)C(F)(F)F.O=S(=O)([N-]S(=O)(=O)C(F)(F)F)C(F)(F)F: the activity coefficient was found to be 0.54 ± 0.04 (323.15 K), 0.54 ± 0.04 (333.15 K) and 0.53 ± 0.04 (343.15 K).

Consider `CCC[N+](=O)[O-]` [1-nitropropane] + CCCOC[n+]1ccn(Cc2ccccc2)c1.F[B-](F)(F)F, for which the activity coefficient by setting is: (323.15 K) 1.16 ± 0.07; (333.15 K) 1.12 ± 0.07; (343.15 K) 1.14 ± 0.07.

Take `CCCCCCC` [heptane] + CCCCCCCCn1cc[n+](COCCC)c1C.N#C[N-]C#N: the activity coefficient was 8.88 ± 0.61 (323.15 K), 8.18 ± 0.56 (333.15 K) and 7.95 ± 0.54 (343.15 K).

For the molecule `CCCCCCCCC` [nonane] + CCCOC[n+]1ccn(C)c1.N#C[N-]C#N, the activity coefficient (323.15 K) worked out at 263 ± 18, the activity coefficient (333.15 K) amounted to 234 ± 16 and the activity coefficient (343.15 K) was 197 ± 14.

Consider `CC(C)CO` [2-methyl-1-propanol] + CCCOC[n+]1ccn(C)c1.O=S(=O)([N-]S(=O)(=O)C(F)(F)F)C(F)(F)F, for which the activity coefficient (323.15 K) came to 2.18 ± 0.15, the activity coefficient (333.15 K) amounted to 1.93 ± 0.13 and the activity coefficient (343.15 K) turned out to be 1.76 ± 0.12.

`CCC(=O)CC` [pentan-3-one] + CCCOC[n+]1ccn(Cc2ccccc2)c1.N#C[N-]C#N: the activity coefficient by setting is: (323.15 K) 1.33 ± 0.09; (333.15 K) 1.4 ± 0.09; (343.15 K) 1.43 ± 0.09.
